Results taken from US20260062388A1, “POLYMORPHIC FORM OF NEPICASTAT ACID ADDITION SALT, PREPARATION METHOD THEREFOR AND USE THEREOF” (Jiangsu Yahong Meditech Co., Ltd., priority 2022, published 2026).

How the values were obtained:
[1] = Approximate solubility test on crystal forms of hydrochloride salt of nepicastat at room temperature; format: physicochemical; settings: thermodynamic from solid, room temperature
[2] = Dynamic vapor sorption (DVS) hygroscopicity; format: physicochemical
Procedure: DVS curves are acquired on DVS Intrinsic from SMS (Surface Measurement Systems). • Testing temperature: 25° C. • Sample amount: 10-20 mg • dm/dt: 0.002%/min; • RH range: 0% RH-95% RH-0% RH • RH gradient: 10%

[3] = Long-term stability test (25° C./60% RH) of crystal form I; format: physicochemical; settings: for Moisture (KF, w/w %) / Related substances (w/w %): Total impurities / Chiral purity (%) / Content (HPLC, w/w %): 25° C. ± 2° C./60% RH ± 5% RH; for Chiral purity (%): S-enantiomer; for Content (HPLC, w/w %): deducting residual solvent(s) and moisture
[4] = Accelerated stability test (40° C./75% RH) of crystal form I; format: physicochemical; settings: for Moisture (KF, w/w %) / Related substances (w/w %): Total impurities / Chiral purity (%) / Content (HPLC, w/w %): 40° C. ± 2° C./75% RH ± 5% RH; for Chiral purity (%): S-enantiomer; for Content (HPLC, w/w %): deducting residual solvent(s) and moisture
[5] = Stability studies under relatively harsh conditions (40° C., 40° C./75% RH, 60° C., 60° C./75% RH) on crystal forms I and II; format: physicochemical; settings: for crystal form stability (XRPD pattern): 15 days
[6] = Bioavailability test, intravenous and oral administration to mice; settings: mouse, in vivo, IV 15 mg/kg, PO 30 mg/kg
Text: The crystal forms I and II of hydrochloride salt of nepicastat and the crystal forms of other acid addition salts of nepicastat in Table 31 were taken, and administered intravenously and orally to mice respectively, wherein: • the formulation for intravenous (IV) administration was: 5% (v/v) DMSO+10% (v/v) Solutol HS 15+85% (v/v) physiological saline; • the formulation for oral (PO) administration was: 0.5% (v/v) MC4000 aqueous solution (MC: methylcellulose).
The specific administration was as follows: • Experiment: three mice were subjected to the test in parallel for each formulation; • Body weight: about 30 g • Administration route: IV; PO • Dose administered: IV-15 mg/kg; PO-30 mg/kg; • Before administration: fasting for 12 hours before administration, and allowing mice to drink water; • After administration: allowing mice to drink water, and feeding within 2 hours after administration; • Blood collecting site: the vein at a hind leg • Blood collecting times: IV—0.083, 0.25, 0.5, 1, 2, 4, 6, 8, 24 h; • PO—0.25, 0.5, 1, 2, 4, 6, 8, 24 h.
Due to very close solubilities of the crystal forms I and II of hydrochloride salt of nepicastat in water, it was found in the experiment that both of them obtained clear solutions upon preparing the administration samples.

## Cl.NCc1c[nH]c(=S)n1[C@H]1CCc2c(F)cc(F)cc2C1.O [crystal form I of hydrochloride salt, (S)-5-aminomethyl-1-(5,7-difluoro-1,2,3,4-tetrahydronaphthalen-2-yl)-1,3-dihydroimidazole-2-thione hydrochloride monohydrate]
[1]; aqueous with cosolvent or surfactant or cyclodextrin, solvent 15% Isopropanol
  solubility: 20000 to 27000 µg/mL
[1]; aqueous with cosolvent or surfactant or cyclodextrin, solvent 30% Methanol
  solubility: 21000 to 42000 µg/mL
[1]; aqueous with cosolvent or surfactant or cyclodextrin, solvent 50% Acetonitrile
  solubility: 80000 to 100000 µg/mL
[1]; aqueous with cosolvent or surfactant or cyclodextrin, solvent 50% Ethanol
  solubility: 20000 to 27000 µg/mL
[1]; aqueous with cosolvent or surfactant or cyclodextrin, solvent 50% Isopropanol
  solubility: 40000 to 80000 µg/mL
[1]; aqueous with cosolvent or surfactant or cyclodextrin, solvent 50% Tetrahydrofuran
  solubility: 100000 to 130000 µg/mL
[1]; organic solvent or mixture, solvent 1,4-Dioxane
  solubility: < 1000 µg/mL
[1]; organic solvent or mixture, solvent 2-Butanone
  solubility: < 1000 µg/mL
[1]; organic solvent or mixture, solvent 2-Methyltetrahydrofuran
  solubility: < 1000 µg/mL
[1]; organic solvent or mixture, solvent Acetone
  solubility: < 1000 µg/mL
[1]; organic solvent or mixture, solvent Acetonitrile
  solubility: 40 µg/mL
[1]; organic solvent or mixture, solvent Chloroform
  solubility: 380 µg/mL
[1]; organic solvent or mixture, solvent Dichloromethane
  solubility: < 10 µg/mL
[1]; organic solvent or mixture, solvent Ethanol
  solubility: 6500 µg/mL
[1]; organic solvent or mixture, solvent Ethyl acetate
  solubility: 10 µg/mL
[1]; organic solvent or mixture, solvent Isopropanol
  solubility: 6000 µg/mL
[1]; organic solvent or mixture, solvent Methanol
  solubility: 33000 µg/mL
[1]; organic solvent or mixture, solvent Methyl tert-butyl ether
  solubility: < 1000 µg/mL
[1]; organic solvent or mixture, solvent N-hexane
  solubility: < 10 µg/mL
[1]; organic solvent or mixture, solvent Propanol
  solubility: 11700 µg/mL
[1]; organic solvent or mixture, solvent Propylene carbonate
  solubility: 140 µg/mL
[1]; organic solvent or mixture, solvent Tetrahydrofuran
  solubility: 90 µg/mL
[1]; solvent Purified water
  solubility: 7400 µg/mL
[2]; DVS, 0% RH to 80% RH
  hygroscopicity of the sample: slight hygroscopicity
[2]; DVS, from 0% RH to 80% RH, 25° C.
  weight gain by hygroscopicity: about 1.036%
[2]; XRPD before and after DVS
  crystal form before and after the DVS test: remained unchanged
[3]; 3 months
  Moisture (KF, w/w %): 5.7 w/w %
  Related substances (w/w %): Total impurities: not detected
  Chiral purity (%): 99.8%
  Content (HPLC, w/w %): 100.8 w/w %
[3]; 6 months
  Moisture (KF, w/w %): 6.0 w/w %
  Related substances (w/w %): Total impurities: not detected
  Chiral purity (%): 99.8%
  Content (HPLC, w/w %): 100.3 w/w %
[3]; 9 months
  Moisture (KF, w/w %): 6.3 w/w %
  Related substances (w/w %): Total impurities: not detected
  Chiral purity (%): 99.8%
  Content (HPLC, w/w %): 100.5 w/w %
[3]; 12 months
  Moisture (KF, w/w %): 6.2 w/w %
  Related substances (w/w %): Total impurities: not detected
  Chiral purity (%): 99.8%
  Content (HPLC, w/w %): 100.0 w/w %
[3]; Initial
  Moisture (KF, w/w %): 5.9 w/w %
  Related substances (w/w %): Total impurities: not detected
  Chiral purity (%): 99.8%
  Content (HPLC, w/w %): 100.3 w/w %
[3]; 25° C./60% RH, double-layer polyethylene bag
  long-term stability: no significant change in the detection results
[4]; 1 months
  Moisture (KF, w/w %): 5.8 w/w %
  Related substances (w/w %): Total impurities: not detected
  Chiral purity (%): 99.8%
  Content (HPLC, w/w %): 100.4 w/w %
[4]; 2 months
  Moisture (KF, w/w %): 5.7 w/w %
  Related substances (w/w %): Total impurities: not detected
  Chiral purity (%): 99.8%
  Content (HPLC, w/w %): 99.6 w/w %
[4]; 3 months
  Moisture (KF, w/w %): 5.7 w/w %
  Related substances (w/w %): Total impurities: not detected
  Chiral purity (%): 99.8%
  Content (HPLC, w/w %): 100.4 w/w %
[4]; 6 months
  Moisture (KF, w/w %): 5.8 w/w %
  Related substances (w/w %): Total impurities: not detected
  Chiral purity (%): 99.8%
  Content (HPLC, w/w %): 100.1 w/w %
[4]; Initial
  Moisture (KF, w/w %): 5.9 w/w %
  Related substances (w/w %): Total impurities: not detected
  Chiral purity (%): 99.8%
  Content (HPLC, w/w %): 100.3 w/w %
[4]; 40° C./75% RH, double-layer polyethylene bag
  accelerated stability: no significant change in the detection results
[5]; 60° C.
  crystal form stability (XRPD pattern): stable
[5]; 60° C./75% RH
  crystal form stability (XRPD pattern): stable
[5]; solid left at 60° C. for 15 days
  impurity produced due to degradation: no significant impurity to produce due to degradation
[5]; solid left at 60° C./75% RH for 15 days
  impurity produced due to degradation: no significant impurity to produce due to degradation
[6]
  bioavailability: > 70%
